Reference: patent publication US20090036422A1 (priority 2007, published 2009)
Where a name gives a salt, the structure may show the parent alone.

target: T1, human orexin-2 (hOX2) receptor (Homo sapiens, UniProt O43614); experiment: Intracellular Ca2+ mobilization assay (FLIPR), CHO(dHFr-) cells expressing hOX2, orexin-A at EC80 as agonist; assay type: cell-based; details: Kb=IC50/(1+[A]/EC50); CHO(dHFr-)-OX2R cells, antagonist applied 25 min before orexin-A EC80
T1 construct: expressed in transfected cells
T1 sequence (O43614 1-444): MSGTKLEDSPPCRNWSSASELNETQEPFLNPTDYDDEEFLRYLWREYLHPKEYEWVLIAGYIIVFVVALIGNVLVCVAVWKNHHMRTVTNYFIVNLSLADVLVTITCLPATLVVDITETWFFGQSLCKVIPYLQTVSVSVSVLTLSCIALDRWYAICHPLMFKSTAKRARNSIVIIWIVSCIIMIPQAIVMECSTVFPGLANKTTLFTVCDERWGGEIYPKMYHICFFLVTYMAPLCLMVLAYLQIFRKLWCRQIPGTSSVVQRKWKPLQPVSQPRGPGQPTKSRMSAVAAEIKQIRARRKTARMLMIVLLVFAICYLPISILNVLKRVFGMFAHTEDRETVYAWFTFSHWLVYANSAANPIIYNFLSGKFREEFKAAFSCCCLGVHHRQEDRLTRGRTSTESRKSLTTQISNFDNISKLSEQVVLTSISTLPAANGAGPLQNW
How it was run: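 Fluo-4-loaded CHO(dHFr−) cells stably expressing hOX2 were preincubated 25 min at 37 °C with antagonist (11 concentrations, 0.0001–10 μM), then challenged with orexin-A at its daily-determined EC80. Peak fluorescence over basal read by FLIPR; IC50 from Hill fit, Kb via Kb=IC50/(1+[A]/EC50).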

Row | Kb [µM] | Compound
1 | 0.0343 | Cc1ccc(N(CCc2ccc(C#N)cc2)C(=O)[C@@H](N)c2ccccc2)cc1C [Example 212, (S)-2-Amino-N-[2-(4-cyano-phenyl)-ethyl]-N-(3,4-dimethyl-phenyl)-2-phenyl-acetamide hydrochloride]
2 | 0.0023 | COc1ccc(N(CCc2ccc(C(F)(F)F)cc2)C(=O)[C@@H](NC2COC2)c2ccccc2)cc1OC [Example 72, (S)—N-(3,4-Dimethoxy-phenyl)-2-(oxetan-3-ylamino)-2-phenyl-N-[2-(4-trifluoromethyl-phenyl)-ethyl]-acetamide]
3 | 0.0053 | COc1ccc(N(CCc2ccc(C(F)(F)F)cc2)C(=O)[C@@H](N)c2ccccc2OC)cc1OC [Example 103, (S)-2-Amino-N-(3,4-dimethoxy-phenyl)-2-(2-methoxy-phenyl)-N-[2-(4-trifluoromethyl-phenyl)-ethyl]-acetamide hydrochloride]
4 | 0.0102 | Cc1ccc(CCN(C(=O)[C@@H](NC(=O)[C@H](C)N)c2ccccc2)c2ccc(C)c(C)c2)cc1 [Example 251, (S)-2-Amino-N-{(S)-[(3,4-dimethyl-phenyl)-(2-p-tolyl-ethyl)-carbamoyl]-phenyl-methyl}-propionamide]
5 | 0.0074 | COc1ccc(N(CCc2ccc(C(F)(F)F)cc2)C(=O)C(N)c2cccc(F)c2)cc1OC (centres unmarked) [Example 85, 2-Amino-N-(3,4-dimethoxy-phenyl)-2-(3-fluoro-phenyl)-N-[2-(4-trifluoromethyl-phenyl)-ethyl]-acetamide]
6 | 0.0267 | CCC(COC)NC(C(=O)N(CCc1ccc(C)cc1)c1ccc(C)c(C)c1)c1ccccc1 (centres unmarked) [Example 125, N-(3,4-Dimethyl-phenyl)-2-(1-methoxymethyl-propylamino)-2-phenyl-N-(2-p-tolyl-ethyl)-acetamide]
7 | 0.013 | COc1ccc(N(CCc2ccc(C(F)(F)F)cc2)C(=O)C(N)c2ccccc2)cc1Cl (centres unmarked) [Example 66, 2-Amino-N-(3-chloro-4-methoxy-phenyl)-2-phenyl-N-[2-(4-trifluoromethyl-phenyl)-ethyl]-acetamide]
8 | 0.022 | CCC(O)CNC(C(=O)N(CCc1ccc(C)cc1)c1ccc(C)c(C)c1)c1ccccc1 (centres unmarked) [Example 131, N-(3,4-Dimethyl-phenyl)-2-(2-hydroxy-butylamino)-2-phenyl-N-(2-p-tolyl-ethyl)-acetamide]
9 | 0.0283 | Cc1ccc(N(CCc2cccc(F)c2)C(=O)[C@@H](N)c2ccccc2)cc1C [Example 182, (S)-2-Amino-N-(3,4-dimethyl-phenyl)-N-[2-(3-fluoro-phenyl)-ethyl]-2-phenyl-acetamide hydrochloride]
10 | 0.0819 | Cc1ccc(CCN(C(=O)C(N)c2ccccc2)c2ccc(F)c(C)c2)cc1 (centres unmarked) [Example 88, 2-Amino-N-(4-fluoro-3-methyl-phenyl)-2-phenyl-N-(2-p-tolyl-ethyl)-acetamide]
11 | 0.0336 | COc1ccc(N(CCc2ccc(C(F)(F)F)cc2)C(=O)C(O)c2ccccc2F)cc1OC (centres unmarked) [Example 31, N-(3,4-dimethoxyphenyl)-2-(2-fluorophenyl)-2-hydroxy-N-{2-[4-(trifluoromethyl)phenyl]ethyl}acetamide]
12 | 0.0737 | COc1ccc(C(O)C(=O)N(CCc2ccc(C(F)(F)F)cc2)c2ccc(OC)c(OC)c2)cc1O (centres unmarked) [Example 27, N-(3,4-dimethoxyphenyl)-2-hydroxy-2-(3-hydroxy-4-methoxyphenyl)-N-{2-[4-(trifluoromethyl)phenyl]ethyl}acetamide]
13 | 0.0143 | COc1ccc(C)c(N(CCc2ccc(C(F)(F)F)cc2)C(=O)C(N)c2ccccc2)c1 (centres unmarked) [Example 59, 2-Amino-N-(5-methoxy-2-methyl-phenyl)-2-phenyl-N-[2-(4-trifluoromethyl-phenyl)-ethyl]-acetamide]
14 | 0.0011 | COc1ccc(N(CCc2ccc(C(F)(F)F)cc2)C(=O)[C@@H](N)c2ccccc2)cc1OC [Example 173, (S)-2-Amino-N-(3,4-dimethoxy-phenyl)-2-phenyl-N-[2-(4-trifluoromethyl-phenyl)-ethyl]-acetamide hydrochloride]
